Here are results for one compound from patent US8841233B2, “Herbicidal compositions comprising 4-amino-3-chloro-5-fluoro-6-(4-chloro-2-fluoro-3-methoxyphenyl) pyridine-2-carboxylic acid or a derivative thereof and 4-hydroxyphenyl-pyruvate dioxygenase (HPPD) inhibitors” (Dow Agrosciences LLC, priority 2012, dated 2014).

For this test, the system named is LEFCH. The test can be described thus: Post-emergence foliar-applied weed control, greenhouse (Example I). Type of test: in vivo, Leptochloa chinensis (L.) Nees. An excerpt: Evaluation of Post-emergence Foliar-Applied Herbicidal Mixtures for Weed Control in Direct Seeded Rice
Seeds or nutlets of the desired test plant species were planted in a soil matrix prepared by mixing a loam or sandy loam soil (e.g., 28.6 percent silt, 18.8 percent clay, and 52.6 percent sand, with a pH of about 5.8 and an organic matter content of about 1.8 percent) and calcareous grit in an 80 to 20 ratio. The soil matrix was contained in plastic pots with a volume of 1 quart and a surface area of 83.6 square centimeters (cm^2). When required to ensure good germination and healthy plants, a fungicide treatment and/or other chemical or physical treatment was applied. The plants were grown for 8-22 days in a greenhouse with an approximate 14 h photoperiod which was maintained at about 29° C. during the day and 26° C. during the night. Nutrients (Peters Excel® 15-5-15 5-Ca 2-Mg and iron chelate) were applied in the irrigation solution as needed and water was added on a regular basis. Supplemental lighting was provided with overhead metal halide 1000-Watt lamps as necessary. The plants were employed for testing when they reached the first through fourth true leaf stage. […]
Treatment requirements were calculated based upon the rates being tested, the concentration of active ingredient or acid equivalent in the formulation, and a 12 mL application volume at a rate of 187 L/ha.
For treatments comprised of formulated compounds, measured amounts of compounds were placed individually in 25 mL glass vials and diluted in a volume of 1.25% (v/v) Agri-Dex® crop oil concentrated to obtain 12× stock solutions. […]
For treatments comprised of formulated and technical compounds, weighed amounts of the technical materials were placed individually in 25 mL glass vials and dissolved in a volume of 97:3 v/v acetone/DMSO to obtain 12× stock solutions, and measured amounts of the formulated compounds were placed individually in 25 mL glass vials and diluted in a volume of 1.5% (v/v) crop oil concentrate or water to obtain 12× stock solutions. […]

`COc1c(Cl)ccc(-c2nc(C(=O)O)c(Cl)c(N)c2F)c1F` [Compound A Acid, 4-amino-3-chloro-6-(4-chloro-2-fluoro-3-methoxyphenyl)-5-fluoropyridine-2-carboxylic acid]: the “Visual Weed Control (%) - 21 DAA LEFCH Obs” value by setting is: (17.5 gae/ha) 10%; (35 gae/ha) 60%.
